Measurements reported in patent US20180296507A1, “REDOX-ACTIVATED GLYCOCONJUGATED PROCHELATORS” (ARIZONA BOARD OF REGENTS ON BEHALF OF THE UNIVERSITY OF …, priority 2013, published 2018).
“And” between values parts separate entries of the source, which are not always exact repeats. Identical values can stand only once. “Also recorded” adds a separate entry of the source.

Legend:
[1] = system: glucose transporters; test: Competition assay with 2-NBDG in MDA-MB-231 cells (flow cytometry); assay type: cell-based; conditions: compound 25-100 μM, 30 min, 2-NBDG 200 μM
Text: (§1) The competition assays used fluorescently labeled glucose bioprobe 2-(N-(7-nitrobenz-2-oxa-1,3-diazol-4-yl)amino)-2-deoxyglucose (2-NBDG). […] Without wishing to limit the present invention to any theory or mechanism, it is believed that the glycoconjugation may offer an advantageous increase in cancer cell specificity due to the conjugate being a substrate for the GLUT1 transporter protein and thus taking advantage of its overexpression in cancer cells as compared to normal cells.

[2] = system: glucose transporters; test: Competition assay of transporter-mediated uptake with 2-NBDG in Caco-2 cells (flow cytometry); assay type: cell-based, human; conditions: compound 50 μM; for Competition with 2-NBDG (decrease in intracellular fluorescence): CACO-2 cells, 30 min, 2-NBDG 200 μM; for Competition with 2-NBDG for transporter-mediated uptake: Caco-2 cells, 2-NBDG 100 μM, 40 min
Experimental: Co-treatment with glucose (10 mM) and glucose transporter (GLUT1) inhibitor phloretin (100 μM, 30 min) are employed as positive controls. Experiments were conducted in triplicate and values shown are averages±standard deviation. Statistical analysis: ** p<0.01, *** p<0.001 as compared to the control.
as §1
Competition assay of transporter-mediated uptake. Caco-2 cells were plated at 1×10^6 cells per well in 6-well plates and allowed to adhere for 36 hours. Growth media were then removed and cells were incubated for 12 hours in glucose-free EMEM. […] As a positive control, after starvation cells were treated with 100 μM phloretin for 30 minutes, then treated with EMEM containing 100 μM 2-NBDG for 40 minutes. Cells were washed with PBS (1 mL) and detached by addition of Trypsin-EDTA (400 μL) and incubation for 3 minutes at 37° C. Following addition of EMEM (1 mL), the cell suspensions were centrifuged at 125 g for 10 minutes. The resulting pellets were suspended in PBS (0.5 mL) and transferred to a flow cytometry tube. Cells were stored on ice and analyzed by flow cytometry within 1 hour. Data are obtained as the average of three sets of geometric means of the flow cytometry histogram, and plotted as the percent difference from the control plus/minus the standard deviation between three values.

[3] = system: CCD18-co cells; test: MTT cytotoxicity assay in CCD18-co cells; assay type: cell-based, human; conditions: 72 h exposure, average ± SD of triplicate
Experimental: (§2) Cell culture. Caco-2 (ATCC® HTB-37™) colorectal adenocarcinoma and CCD-18Co (ATCC® CRL-1459™) normal colon fibroblasts were cultured under a 5% CO2 humidified atmosphere at 37° C. in Eagle's Minimal Essential Medium (EMEM) supplemented with 10% fetal bovine serum (FBS), glutamine (2 mM), sodium pyruvate (1 mM), sodium bicarbonate (1.5 g/L), penicillin (100 units/mL), streptomycin (100 μg/mL) and human holo-transferrin (1.25 μM (1 mg/10 mL) prior to use. Flow cytometric analysis was performed at the University of Arizona Cytometry Core Facility (Arizona Cancer Center/Arizona Research Laboratories) using a FACSCanto II flow cytometer (BD Biosciences, San Jose, Calif.) equipped with an air-cooled 15-mW argon ion laser tuned to 488 nm. List mode data files consisting of 10,000 events gated on FSC (forward scatter) vs SSC (side scatter) were acquired and analyzed using CellQuest PRO software (BD Biosciences, San Jose, Calif.). Appropriate electronic compensation was adjusted by acquiring cell populations stained with each dye/fluorophore individually, as well as an unstained control.
(§3) Cytotoxicity assays. The cytotoxicity of the prochelators were assessed using MTT (3-(4,5-dimethylthiazol-2-yl)-2,5-diphenyl-tetrazolium bromide) assays after 72-hour incubations (Table 2). In all cases, the prochelator conjugates are more toxic (lower IC50 values) in the malignant Caco-2 cells than in the normal CCD18-co cells.
(§4) MTT (3-(4,5-dimethylthiazol-2-yl)-2,5-diphenyltetrazolium bromide) viability assays were conducted by standard methods with slight modifications. Cells were seeded at 4000 cells per well for Caco-2 and 10,000 cells per well for CCD18-co and allowed to attach for 24 h. Test compounds dissolved in DMSO were diluted in EMEM to the specified concentration (with final DMSO concentration limited to 0.1%). Cells were incubated in the presence of the test compounds for 72 h, then the MTT solution (4 mg/mL, 10 μL) was added to each well and incubated for 4 h. Following media removal, DMSO (100 μL) was added to each well to dissolve the purple formazan crystals and the plates were incubated for an additional 30 minutes. Absorption at 560 nm was recorded and data were analyzed using logarithmic fits to obtain IC50 values. Each experiment was conducted in triplicate, and values are given as averages plus/minus standard deviation.

[4] = system: Caco-2 cells; test: MTT cytotoxicity assay in Caco-2 cells; assay type: cell-based, human; conditions: for IC50: 72 h exposure, average ± SD of triplicate
Experimental: as §2, §3, §4

[5] = system: intracellular iron; test: Calcein-based iron displacement assay in suspended Jurkat cells; assay type: cell-based
Text: In some embodiments, intracellular activation and iron chelation may be investigated using a calcein-based iron displacement assay. This assay may confirm the activation of the prochelators for iron scavenging, and may also indicate the timeframe for cellular entry and iron binding. […] Data such as this may be collected for particular glycoconjugates to assess the duration of uptake and in particular to determine differences among systems carrying different connectivity (e.g., linker, position of glucose substitution) between the sugar and the prochelator units.

[6] = system: intracellular iron; test: EPR experiments in whole leukemia cells; assay type: cell-based
Text: Chelators (e.g., TC1SH, TC2SH, TC3SH) are released upon reduction of the disulfide bond. The reduced species (e.g., TC1SH, TC2SH, TC3SH) are tridentate iron chelators forming complexes of 2:1 ligand-to-metal stoichiometry. Magnetic measurements and X-ray crystallographic data on the resulting iron complexes (see FIG. 4, BF4^− counterion not shown) indicate that these chelators stabilize iron centers as low-spin Fe(III) species. […] The present invention is not limited to chelators that stabilize iron centers as low-spin Fe(III) species.

[7] = Aqueous solubility by UV-Vis absorption spectroscopy of saturated buffer solutions; assay type: physicochemical; conditions: 5.0 mM TRIS buffer, pH 7.40; average ± SD of triplicate
Experimental: Solubility measurements. The effect of the sugar motif on the aqueous solubility of the synthesized prochelators was investigated by UV-Visible absorption spectroscopy. Determination of molar extinction coefficients of each compound in aqueous buffer (5.0 mM TRIS, pH 7.40) allowed measurement of their concentration at saturation. Stock solutions were prepared in DMSO and diluted in TRIS buffer (5.0 mM, pH 7.40). Buffer solutions containing identical amounts of DMSO (0.3% v/v) were used to obtain blank spectra. […] For solubility measurements, saturated solutions were centrifuged for 20 minutes at 3,200 rpm to remove any precipitate and concentrations were determined by UV-Vis spectroscopy. […] Measurements were done in a set of triplicates.

SMILES | Competition with 2-NBDG for transporter-mediated uptake [2] | IC50 [3] | IC50 ([4]; MTT) | other results
O=C(CCSSc1ccccc1C=NNC(=S)Nc1ccccc1)NC1C(O)OC(CO)C(O)C1O (stereo not shown) [Compound G2TC1] |  |  |  | Uptake of 2-NBDG in the presence of compound [1]: decreased uptake of the fluorescent glycoconjugate
O=C(CCSSc1ccccc1C=NNC(=S)Nc1ccccc1)OCC1OC(O)C(O)C(O)C1O (stereo not shown) [Compound M6TC1] |  |  |  | Competition with 2-NBDG (decrease in intracellular fluorescence) [2]: better competitors of 2-NBDG
COc1ccc(NC(=S)NN=Cc2ccccc2SSCCC(=O)NC2C(O)OC(CO)C(O)C2O)cc1 (stereo not shown) [GA2TC4] | did not compete for uptake with 2-NBDG | 22.5 ± 0.8 µM |  | 
O=C(CCSSc1ccccc1C=NNC(=S)Nc1ccccc1)OCC1OC(O)C(O)C(O)C1O (stereo not shown) [Compound G6TC1] |  |  |  | Competition with 2-NBDG (decrease in intracellular fluorescence) [2]: better competitors of 2-NBDG; also recorded: over three times the decrease due to G2TC1
COc1ccc(NC(=S)NN=Cc2ccccc2SSCCC(=O)OCC2OC(O)C(O)C(O)C2O)cc1 (stereo not shown) [Compound M6TC4] | competed successfully with 2-NBDG | 62.2 ± 0.1 µM | 10.1 ± 0.3 µM | 
S=C(N/N=C/c1ccccc1SSc1ccccc1/C=N/NC(=S)Nc1ccccc1)Nc1ccccc1 [(TC1S)2] |  |  |  | Timeframe of passive diffusion, activation and iron coordination [5]: within minutes; Intracellular reduction/activation and formation of low-spin Fe(III) complex [6]: direct evidence for both the reduction/activation
COc1ccc(NC(=S)NN=Cc2ccccc2SSCCC(=O)OCC2OC(O)C(O)C(O)C2O)cc1 (stereo not shown) [Compound G6TC4] | competes strongly with 2-NBDG for uptake; also recorded: competes aggressively with fluorescent glycoconjugate 2-NBDG | 76 ± 2 µM | 6.9 ± 0.4 µM | 
COc1ccc(NC(=S)NN=Cc2ccccc2SSc2ccccc2C=NNC(=S)Nc2ccc(OC)cc2)cc1 [(TC4-S)2] |  |  |  | Concentration at saturation [7]: <5 μM and <3 mg/L
COC(=O)CCSSc1ccccc1C=NNC(=S)Nc1ccc(OC)cc1 [ATC4] |  | 27.5 ± 0.4 µM | 8.1 ± 0.2 µM | Concentration at saturation [7]: 11 ± 1 μM and 4.7 ± 0.5 mg/L; Times more toxic in Caco-2 cells than in CCD18-co cells ([4]; MTT, 72 h): 3 times; Therapeutic Index ([4]; ratio of IC50 in normal CCD18-co cells relative to malignant Caco-2 cells): 3.4 ± 0.1
